# According to ChEMBL document CHEMBL4339253, “Anthraquinone-Based Specialized Metabolites from Rhizomes of Bulbine natalensis” (J Nat Prod, 2019):
# Active and inactive are the calls of the source. No cut-off for these calls is given here.
# Legend:
# Type in all cases: functional, organism-based
# Cryptococcus neoformans [1] = experiment: Antimicrobial activity against Cryptococcus neoformans ATCC 90113 assessed as inhibition of microbial growth by CLSI based method
# Candida albicans [2] = experiment: Antimicrobial activity against Candida albicans ATCC 90028 assessed as inhibition of microbial growth by CLSI based method
# Escherichia coli [3] = experiment: Antimicrobial activity against Escherichia coli ATCC 35218 assessed as inhibition of microbial growth by CLSI based method
# Pseudomonas aeruginosa [4] = experiment: Antimicrobial activity against Pseudomonas aeruginosa ATCC 27853 assessed as inhibition of microbial growth by CLSI based method
# Staphylococcus aureus [5] = experiment: Antimicrobial activity against methicillin-resistant Staphylococcus aureus ATCC 43300 assessed as inhibition of microbial growth by CLSI based method
# Aspergillus fumigatus [6] = experiment: Antimicrobial activity against Aspergillus fumigatus ATCC 90906 assessed as inhibition of microbial growth by CLSI based method
# Candida albicans [7] = experiment: Antimicrobial activity against Candida albicans ATCC 90028 assessed as inhibition of microbial growth up to 20 ug/mL by CLSI based method
# Escherichia coli [8] = experiment: Antimicrobial activity against Escherichia coli ATCC 35218 assessed as inhibition of microbial growth up to 20 ug/mL by CLSI based method
# [9] = tested on: Mycobacterium intracellulare; experiment: Antimicrobial activity against Mycobacterium intracellulare assessed as inhibition of microbial growth up to 20 ug/mL
# Staphylococcus aureus [10] = experiment: Antimicrobial activity against methicillin-resistant Staphylococcus aureus ATCC 43300 assessed as inhibition of microbial growth up to 20 ug/mL by CLSI based method
# Pseudomonas aeruginosa [11] = experiment: Antimicrobial activity against Pseudomonas aeruginosa ATCC 27853 assessed as inhibition of microbial growth up to 20 ug/mL by CLSI based method
# Cryptococcus neoformans [12] = experiment: Antimicrobial activity against Cryptococcus neoformans ATCC 90113 assessed as inhibition of microbial growth up to 20 ug/mL by CLSI based method
# Aspergillus fumigatus [13] = experiment: Antimicrobial activity against Aspergillus fumigatus ATCC 90906 assessed as inhibition of microbial growth up to 20 ug/mL by CLSI based method
Compound,IC50 (Cryptococcus neoformans [1]) [µM],IC50 (Candida albicans [2]) [µM],IC50 (Escherichia coli [3]) [µM],IC50 (Pseudomonas aeruginosa [4]) [µM],IC50 (Staphylococcus aureus [5]) [µM],IC50 (Aspergillus fumigatus [6]) [µM],growth inhibition (GI) (Candida albicans [7]),growth inhibition (GI) (Escherichia coli [8]),growth inhibition (GI) [9],growth inhibition (GI) (Staphylococcus aureus [10]),growth inhibition (GI) (Pseudomonas aeruginosa [11]),growth inhibition (GI) (Cryptococcus neoformans [12]),growth inhibition (GI) (Aspergillus fumigatus [13])
C[C@@H](O)[C@H]1C(=O)N2C(C(=O)O)=C(S[C@@H]3CN[C@H](C(=O)N(C)C)C3)[C@H](C)[C@H]12 [MEROPENEM],> 300,> 300,0.01,0.02,10,> 300,,,,,,,
C[C@@H]1[C@H](O)[C@@H](C)/C=C/C=C/C=C/C=C/C=C/C=C/C=C/[C@H](O[C@@H]2O[C@H](C)[C@@H](O)[C@H](N)[C@@H]2O)C[C@@H]2O[C@](O)(C[C@@H](O)C[C@@H](O)[C@H](O)CC[C@@H](O)C[C@@H](O)CC(=O)O[C@H]1C)C[C@H](O)[C@H]2C(=O)O [AMPHOTERICIN B],0.2,< 0.1,,,> 100,1,,,,,,,
CC1=CC(O)=C2C(=O)c3c(O)cccc3C(c3ccc4c(c3O)C(=O)c3c(O)cc(C)cc3C4=O)=C2C1=O,,,,,,,inactive,inactive,inactive,inactive,inactive,inactive,inactive
COc1cc(OC)c(C2=C(C)C=C(O)C3C(=O)c4c(O[C@@H]5O[C@H](CO[C@@H]6O[C@H](CO)[C@@H](O)[C@H](O)[C@H]6O)[C@@H](O)[C@H](O)[C@H]5O)cccc4C(=O)C23)c(O)c1C(C)=O (some centres undefined),,,,,,,inactive,inactive,inactive,inactive,inactive,inactive,inactive
Cc1cc(O)c2c(c1)C(O)([C@@H]1O[C@@H](C)[C@H](O)[C@@H](O)[C@H]1O)c1ccc([C@H]3c4cccc(O)c4C(=O)c4c(O)cc(C)c(O[C@@H]5OC[C@@H](O)[C@H](O)[C@H]5O)c43)c(O)c1C2=O (some centres undefined),,,,,,,inactive,inactive,inactive,inactive,inactive,inactive,inactive
Cc1cc(O)c2c(c1)C(O)([C@@H]1O[C@@H](C)[C@H](O)[C@@H](O)[C@H]1O)c1ccc([C@H]3c4cccc(O)c4C(=O)c4c(O)cc(C)c(O)c43)c(O)c1C2=O (some centres undefined),> 30,> 30,,,20,> 30,,,,,,,
COc1cccc2cc3c(c(O)c12)[C@@H](C)OC3,,,,,,,inactive,inactive,inactive,inactive,inactive,inactive,inactive
COc1cc(OC)c(C2=C3C(=O)C(C)=CC(O)=C3C(=O)c3c(O)cccc32)c(O)c1C(C)=O,,,,,,,inactive,inactive,inactive,inactive,inactive,inactive,inactive
OC(Cn1cncn1)(Cn1cncn1)c1ccc(F)cc1F [FLUCONAZOLE],5,,> 0.3,> 0.3,> 300,> 300,,,,,,,
CN[C@H](CC(C)C)C(=O)N[C@H]1C(=O)N[C@@H](CC(N)=O)C(=O)N[C@H]2C(=O)N[C@H]3C(=O)N[C@H](C(=O)N[C@H](C(=O)O)c4cc(O)cc(O)c4-c4cc3ccc4O)[C@H](O)c3ccc(c(Cl)c3)Oc3cc2cc(c3O[C@@H]2O[C@H](CO)[C@@H](O)[C@H](O)[C@H]2O[C@H]2C[C@](C)(N)[C@H](O)[C@H](C)O2)Oc2ccc(cc2Cl)[C@H]1O [VANCOMYCIN],> 70,> 70,0.04,> 0.07,0.4,> 70,,,,,,,
COc1cccc(OC)c1C(=O)N[C@@H]1C(=O)N2[C@@H]1SC(C)(C)[C@@H]2C(=O)O [METHICILLIN],> 300,> 300,,0.3,30,> 300,,,,,,,
CO/N=C(\C(=O)N[C@@H]1C(=O)N2C(C(=O)O)=C(COC(C)=O)CS[C@H]12)c1csc(N)n1 [CEFOTAXIME],> 200,> 200,0.1,0.03,30,> 200,,,,,,,
COc1cc(OC)c(C2=C(C)C=C(O)C3C(=O)c4c(O)cccc4C(=O)C23)c(O)c1C(C)=O (centres undefined),,,,,,,inactive,inactive,inactive,inactive,inactive,inactive,inactive
COc1cc(O)c(C(C)=O)c(O)c1C1=C(C)C=C(O)C2C(=O)c3c(O)cccc3C(=O)C12 (centres undefined),,,,,,,inactive,inactive,inactive,inactive,inactive,inactive,inactive
COc1cc(O)c2c(c1)C(=O)c1cc(O[C@@H]3O[C@H](CO)[C@@H](O)[C@H](O)[C@H]3O)c(C(=O)O)c(C)c1C2=O,,,,,,,inactive,inactive,inactive,inactive,inactive,inactive,inactive
CC1=CC(O)=C2C(=O)c3c(O[C@@H]4O[C@H](CO)[C@@H](O)[C@H](O)[C@H]4O)cccc3C(c3ccc4c(c3O)C(=O)c3c(O)cc(C)cc3C4(O)[C@@H]3O[C@@H](C)[C@H](O)[C@@H](O)[C@H]3O)=C2C1=O (some centres undefined),,,,,,,inactive,inactive,inactive,inactive,inactive,inactive,inactive
